# In US20230022779A1, “DETECTION OF VIABLE MICROORGANISMS IN URINE” (Children's National Medical Center, priority 2021, published 2023):
# Several values for one entry are separate records, joined by “and”; a condition that tells them apart may be missing. Equal values may be shown once.
# Assays:
# [1] = system: Klebsiella pneumoniae (ATCC 13883), phoE gene; assay: PMA-qPCR of bacteria grown with ciprofloxacin; type: cell-based; conditions: 1000 μg/mL ciprofloxacin, 3 and 24-hour treatments
# From the text: The samples underwent PMA treatment, followed by DNA extraction, as described in Example 2. A primer set specific for K. pneumoniae that targets the gene phoE, derived from Shannon et al (doi:10.1016/j.scitotenv. 2007.02.039) was used in conjunction with the samples in a qPCR reaction.
# E. coli (UTI89) = assay: Mouse UTI model, ciprofloxacin treatment, urine culture and PMA-PCR; conditions: 10 mg/kg i.p. twice a day for 3 days from day 5 post-inoculation; urine one day after completion
smiles,measurement,setting,value
"O=C(O)c1cn(C2CC2)c2cc(N3CCNCC3)c(F)cc2c1=O [ciprofloxacin, Ciprofloxacin]",CT value of PMA-treated sample compared to non-PMA-treated equivalent,[1],greater CT
same,groups of mice with no growth on non-selective LB agar,E. coli (UTI89),3 of 5 and 3 out of the 5
